Experiment in all cases: NCI tumour cell line growth inhibition, 48 h
The subject of experiment [1] is MOLT-4 leukemia.
In experiment [2] the test system is COLO 205 colon.
For experiment [3], the system named is HCT-116 colon.
Experiment [4] deals with 786-0 renal.
The test system of experiment [5] is SR leukemia.
Experiment [6] relates to SK-MEL-5 melanoma.
The test system of experiment [7] is A498 renal.
The test system of experiment [8] is SF-268 CNS.
Experiment [9] has as its system SK-MEL-2 melanoma.
Experiment [10] concerns NCI-H226 lung.
The subject of experiment [11] is HL-60(TB) leukemia.
Experiment [12] has as its system K-562 leukemia.
Experiment [13] has as its system MDA-N.
Experiment [14] deals with BT-549 breast.
The test system of experiment [15] is T-47D breast.

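How tested: cells in 96-well plates exposed to compound for 48 hours at five concentrations. At the TGI there is no net growth.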 Where only a bound is given, the exact number is not on record here.

Results on 22 compounds are retold here after PubChem BioAssay (NCI).

For the compound `O=C1CSC(/C(=C/c2ccccc2)c2nc3ccccc3[nH]2)=N1`, the TGI in [1] is above 100 µM; in experiment [2], above 100 µM; in experiment [3] it was above 100 µM; in experiment [4] it was above 100 µM; in experiment [5], above 100 µM; in [6], 38.3 µM. Also, the TGI is above 100 µM in experiment [7]; above 100 µM in experiment [8]; above 100 µM in experiment [9]; 38.4 µM in experiment [10]; above 100 µM in [11]; above 100 µM in experiment [12].

Regarding `CCN(CC)c1ccc2c(c1)OC(=O)C(c1nnc(-c3ccc([N+](=O)[O-])cc3)o1)C2` (configuration not stated), the TGI in [1], in experiment [2], in experiment [3], in [4], in [6] and in experiment [13] was above 100 µM each time. Further, the TGI in experiment [7], in [8], in experiment [9], in experiment [10], in [14] and in [11] was above 100 µM each time. Besides, in [12], the TGI was above 100 µM.

For the compound `CC1(c2cccc3c2C2(O)C=CC4(CCC32)OCCO4)OCCO1` (configuration not stated), the TGI in experiment [1], in experiment [2], in [3], in experiment [4], in experiment [6] and in [7] was above 100 µM throughout. The TGI in experiment [8], in experiment [9], in experiment [10], in experiment [11] and in [12] was above 100 µM in each case.

Take `NCCC(=O)N[C@H](Cc1cc(O)c(O)c(SCC(NC(=O)CC[C@H](N)C(=O)O)C(=O)NCC(=O)O)c1)C(=O)O` (some centres not stated): the TGI in experiment [2], in experiment [3], in experiment [4], in experiment [6], in experiment [13] and in experiment [7] was above 50 µM in each case. Also, the TGI in experiment [8], in experiment [9], in [10], in [14] and in experiment [12] was above 50 µM each time.

With `O=C(CC(=O)C(=O)Nc1ccccc1)CC(c1ccccc1)c1c(O)c2ccccc2oc1=O` (configuration not stated), the TGI in experiment [1], in [2], in experiment [3], in experiment [4], in experiment [6] and in experiment [7] was above 100 µM in each case. Besides, the TGI in [8], in experiment [9], in [10], in [11] and in experiment [12] was above 100 µM each time.

In the case of `COc1ccc(N(C)CN(C)c2nc(N(C)C)nc(N(C)C)n2)cc1`, the TGI in [1], in experiment [2], in experiment [3], in experiment [4], in experiment [5] and in experiment [6] was above 100 µM throughout. For the same compound, the TGI in experiment [7], in [8], in [9], in experiment [11] and in experiment [12] was above 100 µM throughout.

For `Cc1c(/C=N/NC(=S)Nc2cccc(Cl)c2)c(=O)n(-c2ccccc2)n1C`, the TGI in [1] was above 100 µM; in [15] it was above 100 µM; in experiment [2] it was above 100 µM; in experiment [3] it was above 100 µM; in experiment [4], 37 µM; in experiment [5], above 100 µM. The TGI in [6] is above 100 µM; in [7] it was 19.9 µM; in [8], 36.7 µM; in [9], 36.7 µM; in experiment [10], 33.9 µM; in [14], 75.1 µM. For the same compound, the TGI in [11] was above 100 µM; in experiment [12], 31.5 µM.

In the case of `CC1=CCC2(C#N)CCC1C2O` (configuration not stated), the TGI in experiment [1], in experiment [2], in [3], in experiment [4], in [5] and in experiment [6] was above 100 µM throughout. The TGI in experiment [7], in experiment [8], in experiment [9], in [10], in [11] and in experiment [12] was above 100 µM each time.

As to `COC(=O)C1CC(=O)CCC1c1ccccc1` (configuration not stated), the TGI in experiment [1], in experiment [2], in experiment [3], in [4], in experiment [5] and in experiment [6] was above 100 µM each time. The TGI in [7], in [8], in experiment [9], in experiment [10], in [11] and in experiment [12] was above 100 µM throughout.

With `C#CCSc1nc(N)c2ncn(C3OC(CO)C(O)C3O)c2n1` (configuration not stated), the TGI in experiment [1], in experiment [2], in experiment [3], in experiment [4], in experiment [5] and in experiment [6] was above 100 µM throughout. Also, the TGI in [7], in [8], in experiment [11] and in experiment [12] was above 100 µM each time.

Take `Cc1ccc(N/C(Sc2ccccc2)=C(/C(Cl)=C(Cl)Cl)[N+](=O)[O-])c(C)c1`: the TGI in experiment [1] was above 100 µM; in [2], 35.3 µM; in experiment [3], 30.8 µM; in experiment [4] it was 39.1 µM; in experiment [5], above 100 µM; in experiment [6] it was 81.7 µM. Further, the TGI in experiment [7] is 53.4 µM; in experiment [8] it was 29.5 µM; in experiment [9], 36.9 µM; in experiment [10], 55.4 µM; in experiment [14], 29.1 µM; in experiment [11], 56.2 µM. Moreover, in experiment [12], the TGI is 45.8 µM.

On to `C=C[C@@]1(C)CCC2(O)C(CCC3C2(C)CCC[C@@]3(C)COC(=O)CC(=O)OC)C1` (some centres not stated), for which the TGI in experiment [1] was 36 µM; in experiment [3] it was 32.3 µM; in experiment [4], above 100 µM; in [5] it was 43.9 µM; in experiment [6], 32.1 µM; in experiment [8], 55.3 µM. For the same compound, the TGI in experiment [10] is 55.9 µM; in experiment [11], 52.6 µM; in experiment [12], 63.5 µM.

In the case of `O=S(=O)(C(=Ic1ccccc1)S(=O)(=O)C(F)(F)C(F)(F)C(F)(F)C(F)(F)F)C(F)(F)C(F)(F)C(F)(F)C(F)(F)F`, the TGI was 13.8 µM in experiment [1]; 32.5 µM in [15]; 21.8 µM in experiment [2]; 29.5 µM in experiment [4]; 21.9 µM in [5]; 27.5 µM in experiment [6]. The TGI in [7] worked out at 28.6 µM; in [8], 42.7 µM; in experiment [10], 15 µM; in experiment [14], 28.5 µM; in experiment [11], 62 µM; in experiment [12], 16.4 µM.

Turning to `C/C(=N/NC(=O)c1ccncc1)c1ccc(NC(=O)C(=O)Nn2c(=S)[nH]c3ccccc3c2=O)cc1`, the TGI in experiment [1], in experiment [15], in experiment [2], in experiment [3], in [4] and in experiment [5] was above 100 µM throughout. For the same compound, the TGI in experiment [6], in experiment [7], in experiment [8], in experiment [9], in [10] and in [14] was above 100 µM throughout.

`COc1ccc(-c2cnoc2-c2ccc(OC)c(OC)c2)cc1OC`: the TGI in experiment [1] turned out to be 35.9 µM; in experiment [2], 3.86 µM; in experiment [3], 12.6 µM; in [4], 6.9 µM; in [6], 6.71 µM; in experiment [7], 21.2 µM. Further, the TGI in experiment [8] is 15 µM; in [9] it was 42.7 µM; in experiment [10], above 24 µM; in experiment [11], 2.88 µM; in experiment [12], above 100 µM.

`CC12CCC([C@H](N3CCOCC3)/C1=N\OCCN1CCCC1)C2(C)C` (some centres not stated): the TGI in experiment [1], in experiment [2], in experiment [3], in experiment [4], in [5] and in [6] was above 100 µM each time. For the same compound, the TGI in [7], in [8], in experiment [9], in experiment [10], in experiment [11] and in experiment [12] was above 100 µM in each case.

For `O=C(C/C(=N\NC(=O)C[n+]1ccccc1)C(=O)Nc1nc2ccc([N+](=O)[O-])cc2s1)CC(c1ccccc1)c1c(O)c2ccccc2oc1=O` (configuration not stated), the TGI in experiment [1], in experiment [2], in experiment [3], in experiment [4], in experiment [5] and in experiment [6] was above 100 µM in each case. Besides, the TGI in experiment [7], in experiment [8], in [9], in [11] and in [12] was above 100 µM in each case.

As for `C=CCC1C(=O)C(C(=O)OC)N2CCc3c([nH]c4ccccc34)C12` (configuration not stated), the TGI in experiment [1], in [2], in [3], in experiment [4], in [5] and in [6] was above 100 µM each time. Besides, the TGI in experiment [7], in experiment [8], in experiment [9], in [11] and in [12] was above 100 µM throughout.

Take `O=C1NCN(c2ccccc2)C12CCN(CCc1ccc3[nH]c(=S)[nH]c3c1)CC2`: the TGI in [1] is above 100 µM; in [15], 56.8 µM; in experiment [2], 30.7 µM; in experiment [3] it was above 100 µM; in [4], above 100 µM; in experiment [6], 31.7 µM. In addition, the TGI in [7] was above 100 µM; in experiment [8], above 100 µM; in experiment [9] it was 41 µM; in [14], above 100 µM; in experiment [11], above 100 µM.

Turning to `CCC[C@H](O)[C@@H](CNc1cc(NC(C)=O)nc(NC(C)=O)n1)N(Cc1ccccc1)Cc1ccccc1`, the TGI in experiment [1] is above 100 µM; in [2] it was above 100 µM; in [3] it was 54.1 µM; in experiment [4], 38.6 µM; in experiment [5], above 100 µM; in experiment [6] it was above 100 µM. Further, the TGI in experiment [13] was above 100 µM; in experiment [7], above 100 µM; in experiment [9], above 100 µM; in [10] it was 33.1 µM; in experiment [14] it was 35.9 µM; in experiment [12], above 100 µM.

In the case of `CC(=O)OCCOCNC(=S)N/N=C/c1ccc2ccccc2n1`, the TGI in [1] was above 100 µM; in [2] it was 46.6 µM; in experiment [3] it was above 100 µM; in experiment [4], above 100 µM; in experiment [5], above 100 µM; in [6] it was 60.8 µM. Further, the TGI in experiment [7], in experiment [8], in experiment [9], in [10], in experiment [11] and in experiment [12] was above 100 µM throughout.

For the compound `Clc1cc(OCc2nn3c(Cc4ccccc4)nnc3s2)ccc1OCc1nn2c(Cc3ccccc3)nnc2s1`, the TGI in experiment [1] is above 100 µM; in experiment [15], 79.4 µM; in experiment [2], above 100 µM; in [3] it was above 100 µM; in experiment [4] it was 56.8 µM; in [5] it was above 100 µM. Moreover, the TGI in experiment [6] was above 100 µM; in [7], 79.6 µM; in [8], above 100 µM; in [9] it was above 100 µM; in experiment [10] it was above 100 µM; in [14], above 100 µM. The TGI in experiment [11] and in experiment [12] was above 100 µM in each case.
